Test results: PubChem BioAssay (NCI)
Where “and” joins values, the source holds several entries; their conditions need not be identical. Equal values may be shown once.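 Each compound was tested at five concentrations against cells in 96-well plates for 48 hours. GI50 = concentration required for 50% inhibition of growth. At the TGI there is no net growth.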

Tests used:
Assay in all cases: inhibition of tumour cell growth, NCI panel, 48 h
SK-MEL-2 melanoma = test system: SK-MEL-2 melanoma
NCI-H23 lung = test system: NCI-H23 lung
TK-10 renal = test system: TK-10 renal
RXF 393 renal = test system: RXF 393 renal
786-0 renal = test system: 786-0 renal
EKVX NSCLC = test system: EKVX NSCLC
SF-295 CNS = test system: SF-295 CNS
CCRF-CEM leukemia = test system: CCRF-CEM leukemia
MCF7 breast = test system: MCF7 breast
MDA-MB-231 breast = test system: MDA-MB-231 breast

COC1OC(OC)C2C(c3c(C)cc(C)cc3C)=NOC12 (stereo unspecified)
TGI (SK-MEL-2 melanoma): > 100 µM
TGI (NCI-H23 lung): > 100 µM
TGI (TK-10 renal): > 100 µM
TGI (RXF 393 renal): > 100 µM
TGI (786-0 renal): > 100 µM
TGI (EKVX NSCLC): > 100 µM
TGI (SF-295 CNS): > 100 µM
TGI (CCRF-CEM leukemia): > 100 µM

O=C(Nc1ccc(Cl)cc1)NS(=O)(=O)c1ccc2c(c1)CCC2
GI50 (SK-MEL-2 melanoma): 21.6 µg/mL
TGI (SK-MEL-2 melanoma): > 100 µM and 48.6 µg/mL
GI50 (NCI-H23 lung): 15.6 µg/mL
TGI (NCI-H23 lung): > 56 µM and 36.3 µg/mL
GI50 (TK-10 renal): 21 µg/mL
TGI (TK-10 renal): > 95.4 µM and 44.5 µg/mL
GI50 (RXF 393 renal): 2.52 µg/mL
TGI (RXF 393 renal): 79.3 µM and 22.8 µg/mL
TGI (MCF7 breast): 81.8 µM
GI50 (786-0 renal): 21.1 µg/mL
TGI (786-0 renal): > 100 µM and 40.5 µg/mL
GI50 (EKVX NSCLC): 22.4 µg/mL
TGI (EKVX NSCLC): > 100 µM and 72.1 µg/mL
GI50 (SF-295 CNS): 12 µg/mL
TGI (SF-295 CNS): > 100 µM and 31.9 µg/mL
GI50 (CCRF-CEM leukemia): 10.5 µg/mL
TGI (CCRF-CEM leukemia): > 100 µM and 57.4 µg/mL

COc1ccc(C(=O)O/N=C2\CCCC\C2=C/c2ccccc2)cc1
TGI (NCI-H23 lung): 41.5 µM
TGI (TK-10 renal): > 100 µM
TGI (786-0 renal): > 100 µM
TGI (EKVX NSCLC): > 100 µM
TGI (CCRF-CEM leukemia): > 100 µM

CC/C(=C(\c1ccccc1)c1ccc(OCCN(C)C)cc1)c1ccccc1
GI50 (NCI-H23 lung): 3.68 µM
GI50 (MDA-MB-231 breast): 3.59 µM
GI50 (RXF 393 renal): 1.39 µM
GI50 (MCF7 breast): 1.12 µM
GI50 (786-0 renal): 2.96 µM
GI50 (EKVX NSCLC): 4.74 µM
GI50 (CCRF-CEM leukemia): 2.33 µM

COc1ccc(NC(=O)CC/C(CC(=O)c2ccco2)=N/Nc2ccc([N+](=O)[O-])cc2[N+](=O)[O-])cc1
TGI (SK-MEL-2 melanoma): > 100 µM
TGI (NCI-H23 lung): > 100 µM
TGI (TK-10 renal): > 100 µM
TGI (RXF 393 renal): > 100 µM
TGI (786-0 renal): > 100 µM
TGI (EKVX NSCLC): > 100 µM
TGI (SF-295 CNS): > 100 µM
TGI (CCRF-CEM leukemia): 85.1 µM

Cn1cc(-c2ccc3cc(-c4ccc(CC(=O)Nc5cc(C(C)(C)C)nn5C)cc4)cnc3c2)cn1
GI50 (SK-MEL-2 melanoma): 0.138 µM
GI50 (NCI-H23 lung): 0.407 µM
TGI (NCI-H23 lung): > 100 µM
GI50 (MDA-MB-231 breast): 0.317 µM
TGI (MDA-MB-231 breast): > 100 µM
GI50 (TK-10 renal): 0.492 µM
TGI (TK-10 renal): > 100 µM
GI50 (MCF7 breast): 0.496 µM
TGI (MCF7 breast): > 100 µM
GI50 (786-0 renal): 0.351 µM
TGI (786-0 renal): > 100 µM
GI50 (EKVX NSCLC): 0.282 µM
TGI (EKVX NSCLC): > 100 µM
GI50 (SF-295 CNS): 0.307 µM
TGI (SF-295 CNS): > 100 µM
GI50 (CCRF-CEM leukemia): 0.375 µM
TGI (CCRF-CEM leukemia): > 100 µM

C1=C[C@@H]2c3ccc4cnccc4c3NC[C@@H]2C1
TGI (NCI-H23 lung): > 100 µM
TGI (TK-10 renal): > 100 µM
TGI (RXF 393 renal): > 100 µM
TGI (MCF7 breast): > 100 µM
TGI (786-0 renal): > 100 µM
TGI (EKVX NSCLC): > 100 µM
TGI (SF-295 CNS): > 100 µM
TGI (CCRF-CEM leukemia): > 100 µM

COC(=O)C1=Cc2cc3c(cc2[C@H](c2ccc4c(c2)OCO4)C1C(=O)OC)OCO3 (stereo partly specified)
TGI (NCI-H23 lung): > 100 µM
TGI (TK-10 renal): > 100 µM
TGI (RXF 393 renal): > 100 µM
TGI (786-0 renal): > 100 µM
TGI (EKVX NSCLC): > 100 µM
TGI (SF-295 CNS): > 100 µM
TGI (CCRF-CEM leukemia): > 100 µM

CCCCN(CCCC)C(=Nc1ccccc1)N(CCCC)CCCC
TGI (SK-MEL-2 melanoma): 18.9 µM
TGI (NCI-H23 lung): 5.97 µM
TGI (TK-10 renal): 34.4 µM
TGI (RXF 393 renal): 25.6 µM
TGI (786-0 renal): 15.2 µM
TGI (EKVX NSCLC): 17.5 µM
TGI (SF-295 CNS): 23.1 µM
TGI (CCRF-CEM leukemia): 24.4 µM

CCN(CC)CCn1c(=N)n(CC(O)c2ccc(Cl)c(Cl)c2)c2ccccc21 (stereo unspecified)
GI50 (SK-MEL-2 melanoma): 2.93 µM
TGI (SK-MEL-2 melanoma): 8.32 µM
GI50 (NCI-H23 lung): 15 µM
TGI (NCI-H23 lung): 32.5 µM
GI50 (MDA-MB-231 breast): 5.16 µM
TGI (MDA-MB-231 breast): 20.2 µM
GI50 (TK-10 renal): 14.1 µM
TGI (TK-10 renal): 27.1 µM
GI50 (RXF 393 renal): 2.8 µM
TGI (RXF 393 renal): 10.9 µM
GI50 (MCF7 breast): 2.83 µM
TGI (MCF7 breast): 8.56 µM
GI50 (786-0 renal): 10.9 µM
TGI (786-0 renal): 23.1 µM
GI50 (SF-295 CNS): 8.87 µM
TGI (SF-295 CNS): 24.1 µM

CC(C)NC(=O)OCc1nnn2c1C(OC(=O)NC(C)C)CC2 (stereo unspecified)
TGI (SK-MEL-2 melanoma): > 100 µM
TGI (NCI-H23 lung): > 100 µM
TGI (TK-10 renal): > 100 µM
TGI (RXF 393 renal): > 100 µM
TGI (786-0 renal): > 100 µM
TGI (EKVX NSCLC): > 100 µM
TGI (SF-295 CNS): > 100 µM

CCOC(=O)C(C(=O)c1ccccc1-c1ccccc1C(=O)O)=P(c1ccccc1)(c1ccccc1)c1ccccc1
TGI (SK-MEL-2 melanoma): 40.3 µM
TGI (NCI-H23 lung): 40 µM
TGI (TK-10 renal): > 100 µM
TGI (RXF 393 renal): 73.1 µM
TGI (786-0 renal): > 100 µM
TGI (EKVX NSCLC): > 100 µM
TGI (SF-295 CNS): 88.8 µM
TGI (CCRF-CEM leukemia): 77.1 µM

CCOP1(=O)OCC2OC(n3cnc4c(N)ncnc43)C(O)C2O1 (stereo unspecified)
TGI (SK-MEL-2 melanoma): > 100 µM
TGI (MDA-MB-231 breast): > 100 µM
TGI (TK-10 renal): > 100 µM
TGI (RXF 393 renal): > 100 µM
TGI (MCF7 breast): > 100 µM
TGI (786-0 renal): > 100 µM
TGI (EKVX NSCLC): > 100 µM
TGI (SF-295 CNS): > 100 µM

COC(=O)C1=CC(=O)C(C(=O)Nc2ccc(OC)cc2)C(c2ccccc2)O1 (stereo unspecified)
TGI (SK-MEL-2 melanoma): > 100 µM
TGI (NCI-H23 lung): 46.6 µM
TGI (TK-10 renal): 73.5 µM
TGI (RXF 393 renal): 52.8 µM
TGI (786-0 renal): 41.5 µM
TGI (EKVX NSCLC): > 100 µM
TGI (SF-295 CNS): 61.4 µM
TGI (CCRF-CEM leukemia): > 100 µM

CCN(CC)CCN(C)CC(C)(C)C(=O)/C=C/c1ccccc1
TGI (SK-MEL-2 melanoma): 24.2 µM
TGI (NCI-H23 lung): 25.7 µM
TGI (TK-10 renal): 36.8 µM
TGI (786-0 renal): 29.4 µM
TGI (EKVX NSCLC): 26.1 µM
TGI (SF-295 CNS): 29.4 µM
TGI (CCRF-CEM leukemia): 38.4 µM

CCCCNC(=S)Nn1c(-c2ccccc2)nc2ccccc2c1=O
TGI (SK-MEL-2 melanoma): > 100 µM
TGI (NCI-H23 lung): > 100 µM
TGI (TK-10 renal): > 100 µM
TGI (RXF 393 renal): > 100 µM
TGI (786-0 renal): > 100 µM
TGI (SF-295 CNS): > 100 µM
TGI (CCRF-CEM leukemia): > 100 µM

CC(C)c1ccc2c(c1)CCC1C(C)(C)[C@@H](O)CC[C@]21C (stereo partly specified)
TGI (NCI-H23 lung): 93 µM
TGI (TK-10 renal): > 100 µM
TGI (RXF 393 renal): 54.3 µM
TGI (786-0 renal): 52.5 µM
TGI (SF-295 CNS): 43.4 µM
TGI (CCRF-CEM leukemia): > 100 µM

CN(C)C1(C#N)CCC2(CC1)OCCO2
TGI (SK-MEL-2 melanoma): > 100 µM
TGI (NCI-H23 lung): > 100 µM
TGI (TK-10 renal): > 100 µM
TGI (RXF 393 renal): > 100 µM
TGI (786-0 renal): > 100 µM
TGI (EKVX NSCLC): > 100 µM
TGI (SF-295 CNS): > 100 µM
TGI (CCRF-CEM leukemia): > 100 µM

c1ccc([CH2][Sn]([CH2]c2ccccc2)([S]c2cccc3cccnc23)[S]c2cccc3cccnc23)cc1
GI50 (NCI-H23 lung): 0.273 µM
TGI (NCI-H23 lung): 0.998 µM
GI50 (TK-10 renal): 0.326 µM
TGI (TK-10 renal): 1.06 µM
GI50 (786-0 renal): 0.314 µM
TGI (786-0 renal): 1.05 µM
GI50 (EKVX NSCLC): 0.666 µM
TGI (EKVX NSCLC): 2.03 µM
GI50 (SF-295 CNS): 0.394 µM
TGI (SF-295 CNS): 2.29 µM
GI50 (CCRF-CEM leukemia): 0.102 µM
TGI (CCRF-CEM leukemia): 0.686 µM

COC(=O)C(=O)C(C#N)c1cccc2ccccc12 (stereo unspecified)
TGI (NCI-H23 lung): > 100 µM
TGI (786-0 renal): > 100 µM
TGI (EKVX NSCLC): > 100 µM
TGI (SF-295 CNS): > 100 µM
TGI (CCRF-CEM leukemia): > 100 µM

CCc1ccc(Cc2ccc(CC)c(NC(=O)C(=O)Cc3nc4ccccc4nc3C)c2CC)c(CC)c1NC(=O)C(=O)Cc1nc2ccccc2nc1C
TGI (SK-MEL-2 melanoma): > 100 µM
TGI (NCI-H23 lung): > 100 µM
TGI (TK-10 renal): > 100 µM
TGI (RXF 393 renal): > 100 µM
TGI (786-0 renal): > 100 µM
TGI (EKVX NSCLC): > 100 µM
TGI (CCRF-CEM leukemia): > 100 µM

N#Cc1c([N+](=O)[O-])cc(C(F)(F)F)cc1[N+](=O)[O-]
TGI (SK-MEL-2 melanoma): 39.3 µM
TGI (NCI-H23 lung): 19.2 µM
TGI (TK-10 renal): 18.1 µM
TGI (RXF 393 renal): 6.62 µM
TGI (786-0 renal): 12.7 µM
TGI (EKVX NSCLC): 32.9 µM
TGI (SF-295 CNS): 10.3 µM
